Results published in patent US20260242415A1 (priority 2022, published 2026).
pIC50: −log10 of the molar value. Positions of bridges follow the written chain, without caps; N, C: chain ends. Non-standard residues stand in square brackets, D forms with d. Chains are numbered I, II in the order given. AEEA = NCCOCCOCC(=O)O

Tests used:
[1] = tested on: VSV pseudotyped with spike protein from SARS-CoV-2
[2] = tested on: VSV pseudotyped with spike protein from WIV-16
[3] = tested on: VSV pseudotyped with spike protein from SARS-CoV-1
[4] = molecular target: full length SARS-CoV-2 Spike (Severe acute respiratory syndrome coronavirus 2, UniProt P0DTC2); format: binding; details: 10 µM
[5] = tested on: spike protein of the SARS-CoV-2 virion; format: binding

Compound	ΔTm, melting point change [4] [°C]	enrichment in final round (% of total sequences) [5] [%]	further results
CC[C@H](C)[C@@H]1NC(=O)[C@H](CCC(N)=O)NC(=O)[C@H](CCC(=O)O)NC(=O)[C@H](CCCNC(=N)N)NC(=O)[C@@H]2CCCN2C(=O)[C@H](CCCNC(=N)N)NC(=O)[C@H](CCCNC(=N)N)NC(=O)[C@H](Cc2ccc(O)cc2)NC(=O)CSC[C@@H](C(=O)NCC(N)=O)NC(=O)[C@H](Cc2ccccc2)NC(=O)[C@H](C(C)C)NC(=O)[C@H](Cc2c[nH]c3ccccc23)NC(=O)[C@H](CC(C)C)NC(=O)[C@H](CO)NC(=O)CNC(=O)[C@H]([C@@H](C)CC)NC(=O)[C@H]([C@@H](C)CC)NC1=O [Compound S1b3inL1]	–	–	pIC50 (whole SARS-CoV-2 virus): 5.28; pIC50 (SARS-CoV-2 pseudoviruses): 5.82; pIC50 [1]: 5.77; pIC50 [2]: 5.15; pIC50 [3]: 5.66; pIC50 (SARS2-S pseudotyped VSV): 6.09
CC[C@H](C)[C@@H]1NC(=O)[C@H](C(C)C)NC(=O)[C@H](CC(C)C)NC(=O)[C@H](CCCCN)NC(=O)[C@H](CCCNC(=N)N)NC(=O)[C@@H]2CCCN2C(=O)[C@H](C(C)C)NC(=O)[C@H](CCCNC(=N)N)NC(=O)[C@H](Cc2ccc(O)cc2)NC(=O)CSC[C@@H](C(=O)NCC(N)=O)NC(=O)[C@H](Cc2ccccc2)NC(=O)[C@H](CC(N)=O)NC(=O)[C@H](Cc2c[nH]c3ccccc23)NC(=O)[C@H](C(C)C)NC(=O)[C@H](CO)NC(=O)CNC(=O)[C@H]([C@@H](C)CC)NC1=O [Compound S1b3inL4]	0	1.50	pIC50 (whole SARS-CoV-2 virus): 4.94
CC[C@H](C)[C@@H]1NC(=O)[C@H](Cc2ccc(O)cc2)NC(=O)CSC[C@@H](C(=O)NCC(N)=O)NC(=O)[C@H](C(C)C)NC(=O)[C@H](Cc2ccc(O)cc2)NC(=O)[C@H](CCC(N)=O)NC(=O)[C@H](C(C)C)NC(=O)[C@H](Cc2c[nH]cn2)NC(=O)[C@H]([C@@H](C)O)NC(=O)[C@H](CO)NC(=O)[C@H](Cc2ccc(O)cc2)NC(=O)[C@H](CC(C)C)NC(=O)[C@H](CO)NC(=O)[C@H](CC(=O)O)NC(=O)[C@H](Cc2c[nH]cn2)NC(=O)[C@H](Cc2c[nH]c3ccccc23)NC(=O)[C@H](C(C)C)NC1=O [SARS2L1]	–	–	pIC50 (whole SARS-CoV-2 virus): < 4.00; pIC50 (SARS2-S pseudotyped VSV): 6.39
CFFWYENYYTAITVT [SARS1spikeL3]	–	2.90	–
I: {CH2CO}-YRRPREQIIIGSLWVFCG[AEEA][AEEA]KG-NH2 / II: {CH2CO}-YRRPREQIIIGSLWVFCG[AEEA][AEEA] (amide I:21-II:C; thioether I:N-I:17, II:N-II:17) [Dimer 2]	–	–	pIC50 (SARS-CoV-2 pseudoviruses): 7.30
I: {CH2CO}-YRRPREQIIIGSLWVFCG[AEEA][AEEA][AEEA][AEEA]KG-NH2 / II: {CH2CO}-YRRPREQIIIGSLWVFCG[AEEA][AEEA][AEEA][AEEA] (amide I:23-II:C; thioether I:N-I:17, II:N-II:17) [Dimer 1]	–	–	pIC50 (SARS-CoV-2 pseudoviruses): 7.52
I: {CH2CO}-YRRPREQIIIGSLWVFCG[AEEA][AEEA][AEEA][AEEA][AEEA][AEEA]KG-NH2 / II: {CH2CO}-YRRPREQIIIGSLWVFCG[AEEA][AEEA][AEEA][AEEA][AEEA][AEEA] (amide I:25-II:C; thioether I:N-I:17, II:N-II:17) [Dimer 3]	–	–	pIC50 (SARS-CoV-2 pseudoviruses): 7.05
I: {CH2CO}-YRRPREQIIIGSLWVFCG[AEEA][AEEA][AEEA][AEEA][AEEA][AEEA][AEEA][AEEA]KG-NH2 / II: {CH2CO}-YRRPREQIIIGSLWVFCG[AEEA][AEEA][AEEA][AEEA][AEEA][AEEA][AEEA][AEEA] (amide I:27-II:C; thioether I:N-I:17, II:N-II:17) [Dimer 4]	–	–	pIC50 (SARS-CoV-2 pseudoviruses): 8.00
IILYRTYFQPFRWEF [SARS1spikeL2]	–	5.58	–
IVLHDGLRSATVLWI [SARS2R3L2]	1.5	0.77	–
LIWYQSYYQTEVVWF [SARS1spikeL1]	–	8.32	–
LVFHDNVYTVTVVHV [SARS2R3L1]	1	0.71	–
NARILQRWFPELAHL [SARS2D1]	0	11.88	–
SIENYLKKLGYVLLW [SARS2D4]	−0.5	5.53	–
SVVFSADGRHYYWDS [SARS2L3]	0	1.25	–
TSQICQELDALGDWI [SARS1spikeD2]	–	7.71	–
VIWHPDRWTSVVLQI [SARS2L2]	2	17.02	–
